This passage reports IC50 and Ki results from ChEMBL document CHEMBL1133183, “Quantized surface complementarity diversity (QSCD): a model based on small molecule-target complementarity” (J Med Chem, 2000).

One may read the IC50 as the midpoint of a concentration-inhibition curve. A lower IC50 goes with higher potency. For orientation: Ki means the dissociation constant of the complex between target and ligand, obtained from inhibition or displacement. Lower therefore signals higher affinity.

Each structure is given as a SMILES string.

Assay [1] is described as follows: Inhibitory activity against DNA topoisomerase I.
The target of assay [2] is T1, Type-2 angiotensin II receptor (Rattus norvegicus, UniProt P35351).
T1 sequence (P35351 whole entry): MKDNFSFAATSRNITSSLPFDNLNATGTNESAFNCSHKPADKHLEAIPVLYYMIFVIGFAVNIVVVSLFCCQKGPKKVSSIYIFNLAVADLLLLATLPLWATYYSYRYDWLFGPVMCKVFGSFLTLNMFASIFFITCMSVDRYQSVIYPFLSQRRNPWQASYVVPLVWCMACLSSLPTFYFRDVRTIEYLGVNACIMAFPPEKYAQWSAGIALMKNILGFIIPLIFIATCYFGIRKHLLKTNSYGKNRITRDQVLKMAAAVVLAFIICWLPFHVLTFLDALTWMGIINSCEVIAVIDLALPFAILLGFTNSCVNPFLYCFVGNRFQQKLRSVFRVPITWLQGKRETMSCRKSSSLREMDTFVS
In words: Binding affinity to Angiotensin II receptor, type 2.

The target in assay [3] is T1, Type-2 angiotensin II receptor. In words: Inhibitory activity against Angiotensin II receptor, type 2 binding.
For a further assay, the target named is Prolyl endopeptidase (Sus scrofa, UniProt P23687). The experiment in a line: Inhibition of Prolyl endopeptidase activity. It counts as functional.
Prolyl endopeptidase, sequence (P23687 whole entry): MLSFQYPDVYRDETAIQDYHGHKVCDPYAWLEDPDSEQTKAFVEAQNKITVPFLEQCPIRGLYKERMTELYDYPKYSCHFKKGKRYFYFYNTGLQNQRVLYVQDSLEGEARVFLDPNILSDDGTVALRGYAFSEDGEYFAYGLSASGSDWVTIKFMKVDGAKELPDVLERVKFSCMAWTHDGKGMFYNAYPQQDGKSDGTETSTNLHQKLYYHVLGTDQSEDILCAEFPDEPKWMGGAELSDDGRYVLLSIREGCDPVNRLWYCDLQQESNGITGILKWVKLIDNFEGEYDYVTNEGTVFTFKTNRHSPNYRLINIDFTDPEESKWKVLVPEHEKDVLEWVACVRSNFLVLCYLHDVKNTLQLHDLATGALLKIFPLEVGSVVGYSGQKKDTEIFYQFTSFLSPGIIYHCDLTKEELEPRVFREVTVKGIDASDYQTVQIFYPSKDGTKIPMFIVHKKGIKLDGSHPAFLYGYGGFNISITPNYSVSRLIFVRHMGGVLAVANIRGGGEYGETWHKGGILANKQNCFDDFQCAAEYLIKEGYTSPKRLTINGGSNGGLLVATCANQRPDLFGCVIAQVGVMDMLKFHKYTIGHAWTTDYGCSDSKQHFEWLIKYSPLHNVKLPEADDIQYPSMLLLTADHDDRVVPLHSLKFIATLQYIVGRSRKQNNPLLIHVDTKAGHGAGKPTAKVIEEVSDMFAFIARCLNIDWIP
Another assay concerns the target T2, Endothelin-1 receptor (Homo sapiens, UniProt P25101).
T2 sequence (P25101 whole entry): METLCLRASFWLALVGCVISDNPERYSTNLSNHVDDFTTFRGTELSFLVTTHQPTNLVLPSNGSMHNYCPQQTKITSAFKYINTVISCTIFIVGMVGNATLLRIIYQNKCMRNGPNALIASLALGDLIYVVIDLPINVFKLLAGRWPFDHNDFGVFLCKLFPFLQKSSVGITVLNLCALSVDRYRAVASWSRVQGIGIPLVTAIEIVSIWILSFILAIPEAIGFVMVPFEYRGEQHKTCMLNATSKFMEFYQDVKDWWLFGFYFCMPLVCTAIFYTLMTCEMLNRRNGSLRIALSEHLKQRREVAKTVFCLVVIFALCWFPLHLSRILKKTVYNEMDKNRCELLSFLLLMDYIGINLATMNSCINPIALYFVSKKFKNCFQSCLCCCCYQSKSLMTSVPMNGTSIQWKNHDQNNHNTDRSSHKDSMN
In words: Binding affinity to Endothelin A receptor.

For assay [4], the target named is T3, Type-1 angiotensin II receptor (Oryctolagus cuniculus, UniProt P34976).
T3 sequence (P34976 whole entry): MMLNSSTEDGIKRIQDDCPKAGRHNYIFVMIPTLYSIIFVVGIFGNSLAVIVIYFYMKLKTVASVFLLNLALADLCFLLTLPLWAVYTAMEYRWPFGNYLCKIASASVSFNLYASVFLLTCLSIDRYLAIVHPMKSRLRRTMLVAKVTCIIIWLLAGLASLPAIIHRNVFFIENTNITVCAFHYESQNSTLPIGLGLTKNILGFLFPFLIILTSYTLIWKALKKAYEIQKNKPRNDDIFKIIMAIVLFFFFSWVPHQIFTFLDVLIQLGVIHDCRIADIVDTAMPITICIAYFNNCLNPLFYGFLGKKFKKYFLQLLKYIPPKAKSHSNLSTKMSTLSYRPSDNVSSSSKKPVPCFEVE
The experiment in a line: Binding affinity to Angiotensin II receptor, type 1.

A further assay has as its target Adenosine receptor A2a (Rattus norvegicus, UniProt P30543). In words: Binding affinity to Adenosine A2A receptor.
In assay [5] the target is Leukotriene B4 receptor 1 (Homo sapiens, UniProt Q15722). The experiment in a line: Binding affinity to leukotriene B4 receptor.
Leukotriene B4 receptor 1, sequence (Q15722 whole entry): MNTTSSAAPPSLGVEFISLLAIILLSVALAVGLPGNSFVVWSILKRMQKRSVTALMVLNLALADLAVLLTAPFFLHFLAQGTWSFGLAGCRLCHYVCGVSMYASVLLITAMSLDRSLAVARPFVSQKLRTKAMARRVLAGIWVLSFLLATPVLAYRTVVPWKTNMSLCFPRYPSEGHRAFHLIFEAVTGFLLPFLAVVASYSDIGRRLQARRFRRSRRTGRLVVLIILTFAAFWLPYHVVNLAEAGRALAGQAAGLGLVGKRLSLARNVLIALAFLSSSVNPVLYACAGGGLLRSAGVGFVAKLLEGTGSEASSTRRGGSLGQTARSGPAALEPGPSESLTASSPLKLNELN

Adenosine receptor A2a, sequence (P30543 whole entry): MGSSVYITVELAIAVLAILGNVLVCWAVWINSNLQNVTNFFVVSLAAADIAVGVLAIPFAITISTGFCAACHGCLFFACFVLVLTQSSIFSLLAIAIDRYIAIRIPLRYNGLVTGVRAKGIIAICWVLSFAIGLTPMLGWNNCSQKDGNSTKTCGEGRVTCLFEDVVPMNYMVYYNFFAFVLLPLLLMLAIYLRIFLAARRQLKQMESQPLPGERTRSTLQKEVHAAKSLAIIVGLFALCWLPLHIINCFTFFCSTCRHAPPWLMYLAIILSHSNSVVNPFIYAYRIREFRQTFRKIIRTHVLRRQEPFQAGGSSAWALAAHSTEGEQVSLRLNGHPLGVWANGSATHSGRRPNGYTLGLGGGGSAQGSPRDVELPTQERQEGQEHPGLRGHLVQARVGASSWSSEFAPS

Consider `CC[C@@]1(O)C(=O)OCc2c1cc1n(c2=O)Cc2c-1nc1cnc(Br)cc1c2C`, for which half-maximal inhibition in assay [1] (IC50) was put at 28 nM.
With `CCCCc1nn(-c2cccc([N+](=O)[O-])c2)c(=O)n1Cc1ccc(-c2ccccc2S(=O)(=O)NC(=O)c2ccccc2Cl)cc1`, affinity in assay [2] was put at a Ki of 173 nM. For the same compound, the IC50 in assay [3] is 31 nM.
Consider `CCOC(=O)C(=O)[C@@H]1CCCN1C(=O)[C@@H]1CCCN1C(=O)CCCc1ccccc1`, for which the IC50 against Prolyl endopeptidase came out at 10.3 nM.
In turn, `COc1ccc(CC2C(c3ccc(Cl)c(Cl)c3)C(=O)O[C@@]2(O)c2ccc(OC)cc2)cc1` (stereo partly drawn) registered a Ki at Endothelin-1 receptor of 170 nM.
As to `CCCCc1nn(-c2ccccc2C(F)(F)F)c(=O)n1Cc1ccc(-c2ccccc2-c2nnn[nH]2)cc1`, the affinity in assay [4] corresponds to a Ki of 1.2 nM.
As for `CCNC(=O)[C@H]1C[C@@H](n2cnc3c(N)nc(C#Cc4nccs4)nc32)[C@H](OC)[C@@H]1OC`, the Ki on Adenosine receptor A2a stood at 41.3 nM.
As to `CCCCc1nn(-c2ccccc2C(C)C)c(=O)n1Cc1ccc(-c2ccccc2-c2nn[nH]n2)cc1`, the affinity in assay [4] corresponds to a Ki of 1.4 nM.
For `CCCc1c(OCCCOc2ccc(-c3cscn3)c(COC)c2CC2CC2)ccc2c1O[C@@H](C(=O)O)CC2`, the Ki in assay [5] was found to be 3.2 nM.
On the same count and under the same terms, as for `CCCc1c(OCCCOc2ccc3c(c2CCC)O[C@@H](C(=O)O)CC3)ccc(C(C)=O)c1CO`, the figure is 320 nM.
In turn, `CC[C@@]1(O)C(=O)OCc2c1cc1n(c2=O)Cc2c-1nc1cnc(C#N)cc1c2C` displayed an IC50 in assay [1] of 143 nM.
As for `CCCCc1nn(-c2ccccc2C(F)(F)F)c(=O)n1Cc1ccc(-c2ccccc2S(=O)(=O)NC(=O)OC(C)(C)C)cc1`, in assay [2], the affinity, expressed as Ki, was 17 nM. The compound also returned an IC50 in assay [3] of 0.45 nM.
